The target of test [1] is T1, SARS-CoV-2 PLpro (nsp3 1564–1878) (Severe acute respiratory syndrome coronavirus 2, UniProt P0DTD1). Description: biochemical. Set-up: FRET-quenched peptide (Pro3) cleavage by PLpro, 10 min pre-incubation, slope over 20 min, normalised to no-compound control. The settings on record: low concentration screen, read-out: % of control remaining.
Test [2] has as its target T1, SARS-CoV-2 PLpro (nsp3 1564–1878). Kind of test: biochemical. Set-up: FRET-quenched peptide (Pro3) cleavage by PLpro, 10 min pre-incubation, slope over 20 min, normalised to no-compound control. Particulars: high concentration screen, read-out: % of control remaining.

Here are results for 32 compounds from publication PMC8286840, “Identifying SARS-CoV-2 antiviral compounds by screening for small molecule inhibitors of Nsp3 papain-like protease” (Biochemical Journal, 2021).

The structures appear in SMILES notation. Structures can show the parent of a compound that is named as a salt. Where two headings read alike, the source gives them in different places.

As for `N[C@@H](Cn1oc(=O)[nH]c1=O)C(=O)O` [Quisqualic acid], the remaining activity at 1.25 µM in test [1] (Well no.=3535) is 101%. In addition, in test [2] (Well no.=3535), the remaining activity at 3.75 µM worked out at 101%.

On to `COc1cc(Nc2ncc(F)c(Nc3ccc4c(n3)NC(=O)C(C)(C)O4)n2)cc(OC)c1OC` [R406 (free base)], for which, in test [1] (Well no.=4951), the remaining activity at 1.25 µM stood at 102%. Also, the remaining activity at 3.75 µM in test [2] (Well no.=4951) came to 102%.

For `COc1cc(Nc2ncc(F)c(Nc3ccc4c(n3)NC(=O)C(C)(C)O4)n2)cc(OC)c1OC` [R406], the remaining activity at 1.25 µM in test [1] (Well no.=4816) amounted to 101%. Also, the remaining activity at 3.75 µM in test [2] (Well no.=4816) came out at 99.1%.

With `COc1ccc(F)c(F)c1C(=O)c1cnc(NC2CCN(S(C)(=O)=O)CC2)nc1N` [R547], the remaining activity at 1.25 µM in test [1] (Well no.=4653) amounted to 94.4%. In addition, the remaining activity at 3.75 µM in test [2] (Well no.=4653) was 93.6%.

With `CCCN1CCC[C@H](c2cccc(O)c2)C1` [R(+)-3PPP hydrochloride], in test [1] (Well no.=1261), the remaining activity at 1.25 µM amounted to 105%. In addition, in test [2] (Well no.=1261), the remaining activity at 3.75 µM was 107%.

As for `C=CCN1CCc2c(cc(O)c(O)c2Br)[C@@H](c2ccccc2)C1` [R(+)-6-Bromo-APB hydrobromide], the remaining activity at 1.25 µM in test [1] (Well no.=277) was found to be 98.1%. Besides, the remaining activity at 3.75 µM in test [2] (Well no.=277) turned out to be 97.4%.

For `CC(C)NC[C@@H](O)COc1ccc(CC(N)=O)cc1` [R(+)-Atenolol], in test [1] (Well no.=302), the remaining activity at 1.25 µM was determined as 94.7%. Besides, in test [2] (Well no.=302), the remaining activity at 3.75 µM was 94.8%.

For the compound `C[C@@]1(C2CCCC2)Cc2cc(OCC(=O)O)c(Cl)c(Cl)c2C1=O` [R(+)-IAA-94], the remaining activity at 1.25 µM in test [1] (Well no.=921) was determined as 104%. The remaining activity at 3.75 µM in test [2] (Well no.=921) was determined as 105%.

On to `CN1CCc2cc(Cl)c(O)cc2[C@@H](c2ccccc2)C1` [R(+)-SCH-23390 hydrochloride], for which the remaining activity at 1.25 µM in test [1] (Well no.=638) was 96.8%. Moreover, the remaining activity at 3.75 µM in test [2] (Well no.=638) amounted to 98%.

Take `COc1cc2c(c(OC)c1OC)-c1c(cc(OC)c(OC)c1OC)C[C@H](C)[C@H](C)C2` [R(+)-Schisandrin A]: the remaining activity at 1.25 µM in test [1] (Well no.=3741) was determined as 91.7%. Further, the remaining activity at 3.75 µM in test [2] (Well no.=3741) was found to be 93.8%.

Consider `CCN(CC)C(=O)N[C@@H]1C[C@@H]2c3cccc4[nH]cc(c34)C[C@H]2N(C)C1` [R(+)-Terguride], for which the remaining activity at 1.25 µM in test [1] (Well no.=1330) turned out to be 103%. Also, the remaining activity at 3.75 µM in test [2] (Well no.=1330) is 104%.

On to `CCCN(CCC)[C@@H]1CCc2c(F)ccc(O)c2C1` [R(+)-UH-301 hydrochloride], for which the remaining activity at 1.25 µM in test [1] (Well no.=1382) came to 98.7%. In addition, in test [2] (Well no.=1382), the remaining activity at 3.75 µM worked out at 98.5%.

As for `CCCN1CCc2cc(O)cc3c2[C@H]1Cc1ccc(O)c(O)c1-3` [R(-)-2,10,11-Trihydroxy-N-propylnoraporphine hydrobromide], the remaining activity at 1.25 µM in test [1] (Well no.=636) was 103%. Further, the remaining activity at 3.75 µM in test [2] (Well no.=636) is 103%.

Take `CN1CCc2cc(O)cc3c2[C@H]1Cc1ccc(O)c(O)c1-3` [R(-)-2,10,11-Trihydroxyaporphine hybrobromide]: the remaining activity at 1.25 µM in test [1] (Well no.=588) came out at 104%. The remaining activity at 3.75 µM in test [2] (Well no.=588) came to 100%.

In the case of `COc1ccc(CCNC[C@@H](O)c2ccc(O)cc2)cc1OC` [R(-)-Denopamine], the remaining activity at 1.25 µM in test [1] (Well no.=1498) stood at 103%. Besides, in test [2] (Well no.=1498), the remaining activity at 3.75 µM was 100%.

For `C=CCN1CCc2cccc3c2[C@H]1Cc1ccc(O)c(O)c1-3` [R(-)-N-Allylnorapomorphine hydrobromide], the remaining activity at 1.25 µM in test [1] (Well no.=398) was found to be 98.8%. Moreover, the remaining activity at 3.75 µM in test [2] (Well no.=398) came to 97.4%.

On to `CCCN1CCc2cccc3c2[C@H]1Cc1ccc(O)c(O)c1-3` [R(-)-Propylnorapomorphine hydrochloride], for which, in test [1] (Well no.=540), the remaining activity at 1.25 µM worked out at 104%. Besides, in test [2] (Well no.=540), the remaining activity at 3.75 µM came to 108%.

In the case of `COc1cc2c(cc1OC)[C@@H](c1ccccc1)CN(C)CC2` [R(-)-SCH-12679 maleate], in test [1] (Well no.=1231), the remaining activity at 1.25 µM amounted to 101%. In addition, the remaining activity at 3.75 µM in test [2] (Well no.=1231) came to 104%.

On to `[N-]=[N+]=N[C@]1(CO)O[C@@H](n2ccc(N)nc2=O)[C@H](O)[C@@H]1O` [R-1479], for which the remaining activity at 1.25 µM in test [1] (Well no.=7756) worked out at 97.4%. Also, the remaining activity at 3.75 µM in test [2] (Well no.=7756) amounted to 99%.

For `CCCN(CCC)[C@@H]1CCc2ccc(O)cc2C1` [R-(+)-7-Hydroxy-DPAT hydrobromide], the remaining activity at 1.25 µM in test [1] (Well no.=428) was 97.2%. Besides, in test [2] (Well no.=428), the remaining activity at 3.75 µM was determined as 96.9%.

In the case of `CCCN(CCC)[C@@H]1CCc2cccc(O)c2C1` [R-(+)-8-Hydroxy-DPAT hydrobromide], in test [1] (Well no.=762), the remaining activity at 1.25 µM came out at 92.2%. Moreover, the remaining activity at 3.75 µM in test [2] (Well no.=762) turned out to be 88.8%.

`CNCC[C@@H](Oc1ccc(C(F)(F)F)cc1)c1ccccc1` [R-(-)-Fluoxetine hydrochloride]: the remaining activity at 1.25 µM in test [1] (Well no.=419) came out at 92.7%. For the same compound, the remaining activity at 3.75 µM in test [2] (Well no.=419) stood at 92.4%.

Regarding `N[C@@H](Cc1ccccc1)C(=O)N1C/C(=C/c2ccc(Cl)c(Cl)c2)C(=O)/C(=C\c2ccc(Cl)c(Cl)c2)C1` [RA190], the remaining activity at 1.25 µM in test [1] (Well no.=8408) was found to be 89.3%. In test [2] (Well no.=8408), the remaining activity at 3.75 µM is 89.8%.

For the compound `COc1ccc(OC)c(C2C(C#N)=C(N)Oc3n[nH]c(-c4ccc5ccccc5c4)c32)c1` (stereo not drawn) [RBC8], the remaining activity at 1.25 µM in test [1] (Well no.=7809) amounted to 105%. The remaining activity at 3.75 µM in test [2] (Well no.=7809) was determined as 113%.

For `CC(C)Oc1cccnc1N(C)C1CCN(Cc2ccc(I)cc2)CC1` [RBI-257 maleate], the remaining activity at 1.25 µM in test [1] (Well no.=1402) was 103%. In addition, the remaining activity at 3.75 µM in test [2] (Well no.=1402) was 105%.

`CCCCCC(O)c1cccc(OCc2ccc3ccccc3n2)c1` (stereo not drawn) [REV 5901]: the remaining activity at 1.25 µM in test [1] (Well no.=1158) worked out at 104%. Moreover, the remaining activity at 3.75 µM in test [2] (Well no.=1158) amounted to 101%.

In the case of `CCCCCC(O)c1cccc(OCc2ccc3ccccc3n2)c1` (stereo not drawn) [REV-5901], the remaining activity at 1.25 µM in test [1] (Well no.=4520) worked out at 92.4%. For the same compound, the remaining activity at 3.75 µM in test [2] (Well no.=4520) amounted to 95.4%.

On to `O=C(O)C(Cc1c[nH]c2ccccc12)N1C(=O)c2ccccc2C1=O` (stereo not drawn) [RG108], for which the remaining activity at 1.25 µM in test [1] (Well no.=4791) was determined as 103%; in test [1] (Well no.=8370) it was 88.9%. For the same compound, the results for the remaining activity at 3.75 µM in test [2] (Well no.=4791) and in test [2] (Well no.=8370) were 104% and 85.1%, respectively.

Turning to `CCOc1cc(C(C)(C)C)ccc1C1=N[C@@](C)(c2ccc(Cl)cc2)[C@@](C)(c2ccc(Cl)cc2)N1C(=O)N1CCN(CCCS(C)(=O)=O)CC1` [RG7112], the remaining activity at 1.25 µM in test [1] (Well no.=6676) worked out at 94.8%. Further, in test [2] (Well no.=6676), the remaining activity at 3.75 µM amounted to 94%.

Take `O=C(NCCCCCCNC(=O)ON=C1CCCCC1)ON=C1CCCCC1` [RHC 80267]: in test [1] (Well no.=5818), the remaining activity at 1.25 µM came out at 96.6%. Further, in test [2] (Well no.=5818), the remaining activity at 3.75 µM is 99.1%.

In the case of `CO[C@H]1/C=C/O[C@@]2(C)Oc3c(C)c(O)c4c(O)c(cc(O)c4c3C2=O)NC(=O)/C(C)=C\C=C\[C@H](C)[C@H](O)[C@@H](C)[C@@H](O)[C@@H](C)[C@H](OC(C)=O)[C@@H]1C` [RIFAMYCIN SV], the remaining activity at 1.25 µM in test [1] (Well no.=1987) came out at 105%. For the same compound, in test [2] (Well no.=1987), the remaining activity at 3.75 µM was 97.9%.

On to `CC(C)(C)S(=O)(=O)c1cc2c(Nc3ccc4scnc4c3)ncnc2cc1OCCO` [RIP2 kinase inhibitor 1], for which the remaining activity at 1.25 µM in test [1] (Well no.=6932) was 102%. In addition, the remaining activity at 3.75 µM in test [2] (Well no.=6932) amounted to 105%.
